In ChEMBL document CHEMBL1201862, “PubChem BioAssay data set” (2004):
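Protocol summary: plate cells (96-well), add compound at 5 concentrations, incubate 48 h, interpolate endpoints linearly. GI50 marks 50% less growth.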 Active and inactive are the calls of the source. Rule as the data show it: active = GI50 up to about 1.1 µM and inactive = higher.

What was measured:
Assay in all cases: NCI-60 cell line screen, 48 h
RPMI-8226 = system: RPMI-8226
SNB-75 = system: SNB-75
HOP-92 = system: HOP-92
OVCAR-8 = system: OVCAR-8
MDA-MB-231 = system: MDA-MB-231
HOP-62 = system: HOP-62
HCT-15 = system: HCT-15
Malme-3M = system: Malme-3M
BT-549 = system: BT-549
786-0 = system: 786-0
OVCAR-3 = system: OVCAR-3
NCI/ADR-RES = system: NCI/ADR-RES
HL-60 = system: HL-60
SK-MEL-2 = system: SK-MEL-2
DU-145 = system: DU-145
MDA-N = system: MDA-N
T47D = system: T47D
EKVX = system: EKVX
CCRF-CEM = system: CCRF-CEM
SF-295 = system: SF-295

Measured: GI50

O=c1c(Cc2c(O)ccc3ccccc23)nnc2sc(-c3nn4c(=O)c(Cc5c(O)ccc6ccccc56)nnc4s3)nn12
> 100 µM: HCT-15
inactive: RPMI-8226 > 100 µM | SNB-75 9.2 µM | HOP-92 38.1 µM | OVCAR-8 > 100 µM | MDA-MB-231 32.6 µM | HOP-62 28.5 µM | Malme-3M > 100 µM | BT-549 25.4 µM | 786-0 14.8 µM | OVCAR-3 > 100 µM | NCI/ADR-RES > 100 µM | HL-60 30.8 µM | SK-MEL-2 13.4 µM | DU-145 > 100 µM | MDA-N > 100 µM | T47D 37.2 µM | EKVX 29.2 µM | CCRF-CEM 30.5 µM

CCc1c(CNc2ccc(C(=O)NC(CC(=O)O)C(=O)O)cc2)ccc2nc(N)nc(N)c12 (stereo not given)
inactive: SNB-75 3.52 µM | HOP-92 6.44 µM | MDA-MB-231 > 100 µM | BT-549 25.4 µM | OVCAR-3 10.1 µM | SK-MEL-2 > 100 µM | T47D 20.5 µM | EKVX > 54.6 µM
active: OVCAR-8 < 0.0184 µM | HOP-62 0.267 µM | Malme-3M 0.953 µM | 786-0 < 0.01 µM | NCI/ADR-RES 0.0288 µM | HL-60 < 0.0316 µM | DU-145 0.0125 µM | SF-295 0.0371 µM | MDA-N < 0.01 µM | CCRF-CEM < 0.0128 µM
< 0.0164 µM: HCT-15

Nc1ccc(Oc2ccc(C3(c4ccc(Oc5ccc(N)c(O)c5)cc4)C4CC5CC(C4)CC3C5)cc2)cc1O
1.73 µM: HCT-15
inactive: RPMI-8226 1.97 µM | HOP-92 2.92 µM | OVCAR-8 1.7 µM | MDA-MB-231 1.82 µM | HOP-62 2.5 µM | Malme-3M 2.3 µM | BT-549 1.66 µM | 786-0 1.82 µM | OVCAR-3 1.56 µM | NCI/ADR-RES 2.35 µM | HL-60 2.11 µM | SK-MEL-2 1.86 µM | DU-145 1.82 µM | SF-295 3.06 µM | MDA-N 2.03 µM | T47D 3.27 µM | EKVX 2.2 µM | CCRF-CEM 2.82 µM

CC[C@@H]1CC[C@@H]2[C@H](CC[C@]3(C)[C@@H](OS(=O)(=O)c4ccc(C)cc4)CC[C@@H]23)[C@H]1CO
inactive: RPMI-8226 17 µM | SNB-75 91 µM | HOP-92 > 100 µM | OVCAR-8 > 100 µM | MDA-MB-231 > 100 µM | HOP-62 > 100 µM | Malme-3M > 100 µM | BT-549 > 100 µM | 786-0 > 100 µM | OVCAR-3 > 100 µM | NCI/ADR-RES > 100 µM | HL-60 17.8 µM | DU-145 > 100 µM | SF-295 > 100 µM | MDA-N > 100 µM | T47D 29.2 µM | EKVX 12.2 µM | CCRF-CEM > 100 µM
82.4 µM: HCT-15

CC1CCC2(CC1)N=C1CCC(C)CC1C1(CCC(C)CC1)N2 (stereo not given)
inactive: RPMI-8226 82 µM | SNB-75 19.6 µM | HOP-92 > 100 µM | OVCAR-8 > 100 µM | MDA-MB-231 > 100 µM | Malme-3M > 100 µM | BT-549 > 100 µM | 786-0 > 100 µM | OVCAR-3 > 100 µM | NCI/ADR-RES > 100 µM | HL-60 43.8 µM | SK-MEL-2 > 100 µM | DU-145 > 100 µM | SF-295 > 100 µM | MDA-N 73.8 µM | T47D 67.3 µM | EKVX > 10 µM | CCRF-CEM 24.3 µM
84.7 µM: HCT-15

CSc1ccc(/C=C2\N=C(c3ccccc3)N(c3nc4c(Cl)cc(Cl)cc4s3)C2=O)cc1
28.5 µM: HCT-15
inactive: RPMI-8226 22.5 µM | SNB-75 36.6 µM | HOP-92 32.8 µM | OVCAR-8 38.5 µM | MDA-MB-231 18.9 µM | HOP-62 18.1 µM | BT-549 21.5 µM | 786-0 25.9 µM | OVCAR-3 18.9 µM | NCI/ADR-RES 25.2 µM | HL-60 21.6 µM | SK-MEL-2 20.2 µM | DU-145 46 µM | SF-295 24.3 µM | MDA-N 17 µM | T47D 38.5 µM | EKVX 13.6 µM | CCRF-CEM 7.74 µM

OC[C@@H](O)[C@H](O)[C@@H](O)/C=N/Nc1ccc(Cl)nn1
inactive: RPMI-8226 > 100 µM | HOP-92 > 100 µM | OVCAR-8 > 100 µM | MDA-MB-231 > 100 µM | HOP-62 > 100 µM | Malme-3M > 100 µM | BT-549 > 100 µM | 786-0 > 100 µM | OVCAR-3 > 100 µM | NCI/ADR-RES > 100 µM | HL-60 > 100 µM | SK-MEL-2 > 100 µM | DU-145 > 100 µM | SF-295 > 100 µM | MDA-N > 100 µM | T47D > 100 µM | EKVX > 100 µM | CCRF-CEM > 100 µM
> 100 µM: HCT-15

O=[N+]([O-])C1=Cc2c(O)ccc(O)c2C2OC=CC12 (stereo not given)
inactive: RPMI-8226 34.1 µM | SNB-75 21.6 µM | HOP-92 22.3 µM | OVCAR-8 21.4 µM | MDA-MB-231 18.5 µM | HOP-62 18.3 µM | BT-549 14.6 µM | 786-0 17.9 µM | OVCAR-3 7.94 µM | NCI/ADR-RES 19.2 µM | HL-60 8.59 µM | SK-MEL-2 18.7 µM | DU-145 26.4 µM | SF-295 16.3 µM | MDA-N 5.97 µM | T47D 17.4 µM | EKVX 19.5 µM | CCRF-CEM 8.89 µM
18.5 µM: HCT-15

Cc1cc2c(c(/C=N/c3ccccc3O)c1)OC1(C=C2)Oc2ccccc2C(=O)N1C (stereo not given)
inactive: RPMI-8226 21.2 µM | SNB-75 18.6 µM | HOP-92 11.8 µM | OVCAR-8 17.7 µM | MDA-MB-231 16.3 µM | HOP-62 18.8 µM | BT-549 18.7 µM | 786-0 14.4 µM | OVCAR-3 12.8 µM | NCI/ADR-RES 17.3 µM | HL-60 27 µM | SK-MEL-2 19.5 µM | DU-145 14.9 µM | SF-295 24.7 µM | MDA-N 28.2 µM | T47D 1.57 µM | EKVX 14 µM | CCRF-CEM 17.1 µM
15.9 µM: HCT-15

COC(=O)C1(Cc2ccc3c(c2)CCC3)Cc2ccc3c(c2C1)CCC3 (stereo not given)
25 µM: HCT-15
inactive: RPMI-8226 19.4 µM | SNB-75 > 100 µM | HOP-92 18.7 µM | OVCAR-8 32.1 µM | MDA-MB-231 15.6 µM | HOP-62 30.1 µM | Malme-3M 16.5 µM | BT-549 21.6 µM | 786-0 24.5 µM | OVCAR-3 20.3 µM | NCI/ADR-RES 20.6 µM | HL-60 23.4 µM | DU-145 24.8 µM | SF-295 20.7 µM | MDA-N 13.2 µM | T47D 1.47 µM | EKVX 31.3 µM | CCRF-CEM 70.6 µM

COc1ccccc1N1C(=O)/C(=C\c2cccc(Oc3ccccc3)c2)SC1c1ccccc1 (stereo not given)
inactive: RPMI-8226 24.6 µM | SNB-75 39.6 µM | HOP-92 21.1 µM | OVCAR-8 31.3 µM | MDA-MB-231 > 100 µM | HOP-62 73.3 µM | Malme-3M 37.6 µM | BT-549 29.8 µM | 786-0 39.2 µM | OVCAR-3 27.7 µM | NCI/ADR-RES 59.6 µM | SK-MEL-2 29.9 µM | DU-145 57.5 µM | SF-295 18.7 µM | MDA-N 23.9 µM | T47D 27.2 µM | EKVX 15.9 µM
active: HL-60 < 0.01 µM
47.2 µM: HCT-15

CCOC(=O)CCC(NC(=O)c1ccc(OCc2nc3ccccc3n3cccc23)cc1)C(=O)OCC (stereo not given)
50.6 µM: HCT-15
inactive: SNB-75 29.2 µM | HOP-92 45.6 µM | OVCAR-8 33.5 µM | MDA-MB-231 > 100 µM | HOP-62 38 µM | Malme-3M > 100 µM | BT-549 71.9 µM | 786-0 74.3 µM | OVCAR-3 63.7 µM | NCI/ADR-RES > 100 µM | HL-60 11.5 µM | SK-MEL-2 > 100 µM | DU-145 74.1 µM | SF-295 64.3 µM | MDA-N > 100 µM | T47D 20 µM | EKVX > 100 µM | CCRF-CEM 4.34 µM

O=C(O)CC(Sc1ccccc1)c1ccccc1 (stereo not given)
> 100 µM: HCT-15
inactive: RPMI-8226 > 100 µM | SNB-75 > 100 µM | HOP-92 > 100 µM | OVCAR-8 > 100 µM | MDA-MB-231 > 100 µM | HOP-62 > 100 µM | Malme-3M > 100 µM | BT-549 > 100 µM | 786-0 > 100 µM | OVCAR-3 > 100 µM | NCI/ADR-RES > 100 µM | HL-60 > 100 µM | SK-MEL-2 > 100 µM | DU-145 > 100 µM | SF-295 > 100 µM | MDA-N > 100 µM | T47D > 100 µM | EKVX > 100 µM

COc1ccc(C2C3CCc4ccccc4C3=NN2S(=O)(=O)c2cccc(C(=O)O)c2OC)cc1 (stereo not given)
0.24 µM: HCT-15
inactive: RPMI-8226 9.55 µM | HOP-92 15.7 µM | OVCAR-8 23.6 µM | MDA-MB-231 10.4 µM | HOP-62 21 µM | Malme-3M 13.3 µM | BT-549 33.3 µM | 786-0 11.2 µM | OVCAR-3 5.35 µM | NCI/ADR-RES 2.81 µM | HL-60 7.53 µM | SK-MEL-2 15.7 µM | DU-145 27.7 µM | SF-295 9.23 µM | MDA-N 2.52 µM | T47D 4.83 µM | EKVX 15 µM | CCRF-CEM 10.4 µM

CCCCCCCCCCCCCCCCOP(=O)([O-])OCC[N+](C)(C)C [MILTEFOSINE]
inactive: RPMI-8226 6.1 µM | SNB-75 18.7 µM | HOP-92 2.68 µM | OVCAR-8 25.8 µM | MDA-MB-231 21.8 µM | HOP-62 14.9 µM | Malme-3M 21.8 µM | BT-549 5.35 µM | 786-0 9.55 µM | OVCAR-3 23.9 µM | NCI/ADR-RES 43.4 µM | HL-60 4.74 µM | SK-MEL-2 21 µM | DU-145 19.4 µM | SF-295 7.69 µM | MDA-N 25.1 µM | T47D 18.2 µM | EKVX 27 µM
10.5 µM: HCT-15
